From BindingDB's records for doi:10.1080/14756360802218334 (Cardiff University, 2009) come the findings set out here.

This assay deals with T1, Cytochrome P450 26A1 (Homo sapiens, UniProt O43174).
T1 sequence (O43174 whole entry): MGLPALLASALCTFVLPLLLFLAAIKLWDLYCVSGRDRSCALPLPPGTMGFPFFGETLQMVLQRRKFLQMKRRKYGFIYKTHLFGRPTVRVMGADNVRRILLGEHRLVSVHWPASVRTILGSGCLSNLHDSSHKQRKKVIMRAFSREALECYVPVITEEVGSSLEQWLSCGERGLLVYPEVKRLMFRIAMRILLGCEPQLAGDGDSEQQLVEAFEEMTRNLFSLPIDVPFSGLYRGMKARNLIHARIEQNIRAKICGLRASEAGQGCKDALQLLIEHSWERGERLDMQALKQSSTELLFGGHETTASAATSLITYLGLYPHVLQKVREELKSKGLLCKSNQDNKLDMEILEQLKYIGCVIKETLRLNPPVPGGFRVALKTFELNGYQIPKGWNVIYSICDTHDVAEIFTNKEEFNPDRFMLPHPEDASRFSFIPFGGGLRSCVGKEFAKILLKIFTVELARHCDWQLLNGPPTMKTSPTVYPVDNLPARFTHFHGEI
Briefly: Cell Assay.

In turn, `c1ccc(C(c2ccc(Nc3nc4ccccc4o3)cc2)n2cnnn2)cc1` (centres undefined) [1H-tetrazole, 13] gave a concentration for half-maximal inhibition (IC50) greater than 20 µM.

With `CCC(CC)C(c1ccc(Nc2nc3ccccc3s2)cc1)n1cncn1` (centres undefined) [R115866], the IC50 was 0.005 µM.

As for `c1ccc(C(c2ccc(Nc3nc4ccccc4o3)cc2)n2cnnc2)cc1` (centres undefined) [1H-1,2,4-triazole, 12], the IC50 was greater than 20 µM.

As to `COC(=O)c1ccc(C(c2ccc(Nc3nc4ccccc4o3)cc2)n2ccnc2)cc1` (centres undefined) [Oxazolamine derivative, 5c], the IC50 came out at 20 µM.

Compound `Fc1ccc(C(c2ccc(Nc3nc4ccccc4o3)cc2)n2ccnc2)cc1` (centres undefined) [Oxazolamine derivative, 5a] had a half-inhibitory concentration (IC50) of 35 µM.

In turn, `O=C(O)c1ccc(C(c2ccc(Nc3nc4ccccc4o3)cc2)n2ccnc2)cc1` (centres undefined) [Oxazolamine derivative, 5d] came in with an IC50 of 50 µM.

For `c1ccc(C(c2ccc(Nc3nc4ccccc4o3)cc2)n2cncn2)cc1` (centres undefined) [1H-1,2,4-triazole, 11], the half-maximal inhibitory concentration (IC50) worked out at 18 µM.

For the compound `COc1ccc(C(c2ccc(Nc3nc4ccccc4o3)cc2)n2ccnc2)cc1` (centres undefined) [Oxazolamine derivative, 5e], the IC50 is greater than 20 µM.

As for `Oc1ccc(C(c2ccc(Nc3nc4ccccc4o3)cc2)n2ccnc2)cc1` (centres undefined) [Oxazolamine derivative, 5f], it took 12 µM to reach half-maximal inhibition (IC50).
